Counter-ions that a name gives are not always drawn. Like-named read-outs stand apart in the source and are kept apart here.
Assays:
[1] = target: T1, Rat recombinant PDE10A (rPDE10A2) (Rattus norvegicus, UniProt Q9QYJ6); assay: In vitro assay PDE10A (SPA, 3H-cAMP); format: biochemical
T1 construct: inferred from the Ni metal chelate purification; made in house; host or cells: Sf9 insect cells (baculovirus)
T1 sequence (Q9QYJ6 1-794): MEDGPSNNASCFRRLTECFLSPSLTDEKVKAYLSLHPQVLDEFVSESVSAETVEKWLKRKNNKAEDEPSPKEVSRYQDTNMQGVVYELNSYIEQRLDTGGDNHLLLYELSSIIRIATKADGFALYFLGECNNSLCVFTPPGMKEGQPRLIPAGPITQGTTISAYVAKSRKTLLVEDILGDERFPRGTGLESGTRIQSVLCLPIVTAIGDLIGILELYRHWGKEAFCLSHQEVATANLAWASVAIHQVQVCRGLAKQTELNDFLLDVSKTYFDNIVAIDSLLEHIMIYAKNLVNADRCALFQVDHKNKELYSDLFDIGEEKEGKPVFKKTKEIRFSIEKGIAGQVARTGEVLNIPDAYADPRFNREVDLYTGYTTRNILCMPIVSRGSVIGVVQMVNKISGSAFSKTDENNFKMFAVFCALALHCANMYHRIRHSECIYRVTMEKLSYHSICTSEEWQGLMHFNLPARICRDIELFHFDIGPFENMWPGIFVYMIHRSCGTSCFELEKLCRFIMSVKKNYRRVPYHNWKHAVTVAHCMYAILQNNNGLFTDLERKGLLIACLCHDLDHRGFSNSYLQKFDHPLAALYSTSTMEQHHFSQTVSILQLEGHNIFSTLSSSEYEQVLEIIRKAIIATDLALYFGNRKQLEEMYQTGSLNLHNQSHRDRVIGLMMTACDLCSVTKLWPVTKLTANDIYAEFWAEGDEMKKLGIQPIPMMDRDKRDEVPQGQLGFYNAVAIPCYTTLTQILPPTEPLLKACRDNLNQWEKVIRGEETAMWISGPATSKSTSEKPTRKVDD
Summary of the method: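 Rat PDE10A2 expressed in Sf9 cells and Ni-purified; incubated with 60 nM cAMP plus 0.008 μCi 3H-cAMP in 50 mM Tris pH 7.8, 8.3 mM MgCl2, 1.7 mM EGTA for 60 min at room temperature. Product quantified by scintillation proximity counting; final DMSO 1%.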

[2] = target: T2, PDE10 (Rattus norvegicus, UniProt Q9QYJ6); assay: PDE10 occupancy ([3H]-MP-10, striatum); format: in vivo; settings: for receptor occupancy at 10 mg/kg: rat, single dose 10 mg/kg
T2 construct: from tissue; host or cells: rat brain sections, striatum (in vivo dosing, ex vivo autoradiography)
T2 sequence (Q9QYJ6 1-794): T1 sequence (Q9QYJ6 1-794)
Protocol: Dose-response or single dose experiments were performed to measure PDE10 occupancy 1 hour after subcutaneous (s.c.) or oral (p.o.) administration. Male Wistar rats (200 g) were treated by s.c. or p.o. administration of various PDE10 inhibitors. The PDE10 radioligand [^3H]-MP-10 (10 μCi/animal) was injected intravenously (i.v.) 30 minutes before sacrifice. Brains were immediately removed from the skull and rapidly frozen. Twenty μm-thick brain sections were cut using a cryostat-microtome, thaw-mounted on microscope slides and loaded in a β-imager to quantify PDE10 occupancy in the striatum.

[3] = tested on: apomorphine-induced stereotypy in rats; assay: Apomorphine-induced stereotypy in rats (APO); format: in vivo; settings: Rattus norvegicus
Protocol: Apomorphine (1.0 mg/kg, i.v.)-induced stereotypy (compulsive sniffing, licking, chewing) was scored every 5 min over the first hour after injection of apomorphine, following a 1 hour interval pre-treatment with the test compound. The score system was: (3) pronounced, (2) moderate, (1) slight, and (0) absent.

[4] = target: other members of the PDE family (Homo sapiens, UniProt O00408); assay: In vitro PDE selectivity assay (SPA), other members of the PDE family (protocols in Table A); format: biochemical; settings: hPDE2A; read-out: PDE 2A (expressed as pIC50) (converted)
Protocol: Rat recombinant PDE10A (rPDE10A2) was expressed in Sf9 cells using a recombinant rPDE10A baculovirus construct. Cells were harvested after 48 h of infection and the rPDE10A protein was purified by metal chelate chromatography on Ni-sepharose 6FF. Tested compounds were dissolved and diluted in 100% DMSO to a concentration 100 fold of the final concentration in the assay. Compound dilutions (0.4 μl) were added in 384 well plates to 20 μl of incubation buffer (50 mM Tris pH 7.8, 8.3 mM MgCl2, 1.7 mM EGTA). 10 μl of rPDE10A enzyme in incubation buffer was added and the reaction was started by addition of 10 μl substrate to a final concentration of 60 nM cAMP and 0.008 μCi ^3H-cAMP. The reaction was incubated for 60 minutes at room temperature. After incubation, the reaction was stopped with 20 μl of stop solution consisting of 17.8 mg/ml PDE SPA (scintillation proximity assay) beads. After sedimentation of the beads during 30 minutes the radioactivity was measured in a Perkin Elmer Topcount scintillation counter and results were expressed as cpm. For blanc values the enzyme was omitted from the reaction and replaced by incubation buffer. Control values were obtained by addition of a final concentration of 1% DMSO instead of compound. The same assay principle is applied for the measurement of the affinity of the compound for other members of the PDE family with appropriate modifications in incubation buffer, substrate concentration, incubation time and stop solution. An overview of the different protocols is presented in table A. A best fit curve is fitted by a minimum sum of squares method to the plot of % of control value substracted with blanc value versus compound concentration and the half maximal inhibitory concentration (IC50) value is derived from this curve.
The compounds of the invention are generally selective for PDE10 compared to other PDEs and there are a few that also have affinity for PDE1B1, 4D3 and 5A3.

[5] = pIC50 corresponds to the −log IC50 expressed in mol/L, read-out: PDE10A2 pIC50 (converted)
[6] = Table 4 in vitro selectivity, read-out: PDE 10A2 (expressed as pIC50) (converted)
[7] = dose at which 50% of the tested animals show the effect, ≧: active in 30% of the animals at the indicated dose, ≦: active in 60%
[8] = n.d.: found not active at threshold dose 2.5 mg/kg or 10 mg/kg (a), not further tested
[9] = sc, subcutaneous, read-out: SD sc % occupancy at 10 mg/kg
[10] = po, * compound not soluble, tested orally as a suspension, ≧: active in 30% of the animals at the indicated dose, ≦: active in 60%

Chain of other members of the PDE family (O00408 whole entry): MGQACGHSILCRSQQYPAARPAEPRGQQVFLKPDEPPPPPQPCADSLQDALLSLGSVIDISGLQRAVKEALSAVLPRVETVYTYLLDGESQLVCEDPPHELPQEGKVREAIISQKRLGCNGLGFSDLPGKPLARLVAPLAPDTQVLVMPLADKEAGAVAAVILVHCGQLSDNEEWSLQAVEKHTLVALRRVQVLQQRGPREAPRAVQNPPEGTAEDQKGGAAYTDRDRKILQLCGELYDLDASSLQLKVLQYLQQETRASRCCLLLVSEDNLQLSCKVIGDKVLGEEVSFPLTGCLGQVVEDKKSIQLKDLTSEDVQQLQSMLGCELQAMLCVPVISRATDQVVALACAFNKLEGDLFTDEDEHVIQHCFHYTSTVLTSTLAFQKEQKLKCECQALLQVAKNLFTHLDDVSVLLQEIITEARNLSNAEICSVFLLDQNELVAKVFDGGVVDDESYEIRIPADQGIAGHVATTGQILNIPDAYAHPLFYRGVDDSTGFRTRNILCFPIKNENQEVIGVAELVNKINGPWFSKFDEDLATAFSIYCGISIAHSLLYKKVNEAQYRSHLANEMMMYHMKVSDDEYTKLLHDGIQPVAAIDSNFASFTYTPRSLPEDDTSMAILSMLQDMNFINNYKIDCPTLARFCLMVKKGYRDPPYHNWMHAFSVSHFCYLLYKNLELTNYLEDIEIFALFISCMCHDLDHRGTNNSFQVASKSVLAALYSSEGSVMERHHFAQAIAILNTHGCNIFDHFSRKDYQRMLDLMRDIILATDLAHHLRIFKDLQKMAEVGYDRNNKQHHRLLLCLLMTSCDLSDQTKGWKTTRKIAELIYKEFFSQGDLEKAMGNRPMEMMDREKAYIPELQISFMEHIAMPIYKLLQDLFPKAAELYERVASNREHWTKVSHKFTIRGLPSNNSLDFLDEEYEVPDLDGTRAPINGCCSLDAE

Row | SMILES | IC50 [1, 5] | IC50 [1, 6] | IC50 [4] | receptor occupancy at 10 mg/kg [2, 9] | ED50 [3, 8] | further results
1 | COCCOc1ccc(-c2c(C)nc3c(-c4ccncc4)ccnn23)cn1 [compound 21a, 3-[6-(2-methoxyethoxy)-3-pyridinyl]-2-methyl-8-(4-pyridinyl)-imidazo[1,2-b]pyridazine hydrochloride salt] | 151 nM | – | – | – | – | PDE10 in vivo occupancy ED50 po ([2]; dose response, oral administration): 14 mg/kg; PDE10 in vivo occupancy ED50 sc ([2]; dose response, subcutaneous administration): 2.6 mg/kg
2 | COC(C)(C)Cc1ccc(-c2c(C3CC3)nc3c(-c4ccncc4)ccnn23)cn1 [compound 50, 2-cyclopropyl-3-[6-(2-methoxy-2-methylpropyl)-3-pyridinyl]-8-(4-pyridinyl)-imidazo[1,2-b]pyridazine] | 14.5 nM | 14.5 nM | 6920 nM | – | – | ED50 [3, 7]: 0.8 mg/kg
3 | Cc1nc2c(N3CCOCC3)ccnn2c1-c1ccnc(OC(C)C)c1 [compound 67, 2-methyl-3-[2-(1-methylethoxy)-4-pyridinyl]-8-(4-morpholinyl)-imidazo[1,2-b]pyridazine] | 87.1 nM | – | – | 1% | > 10 mg/kg | –
4 | Cc1cc(N2CCOCC2)c2nc(C)c(-c3ccc(N4CCOCC4)nc3)n2n1 [compound 68, 2,6-dimethyl-8-(4-morpholinyl)-3-[6-(4-morpholinyl)-3-pyridinyl]-imidazo[1,2-b]pyridazine] | 158 nM | 158 nM | > 10000 nM | – | – | ED50 [3, 10]: ≥ 2.5 mg/kg
5 | Cc1cc(-c2ccncc2)c2nc(C3CC3)c(-c3ccc(N4CCOCC4)nc3)n2n1 [compound 71, 2-cyclopropyl-6-methyl-3-[6-(4-morpholinyl)-3-pyridinyl]-8-(4-pyridinyl)-imidazo[1,2-b]pyridazine] | 83.2 nM | 83.2 nM | 2290 nM | – | – | ED50 [3, 10]: ≥ 2.5 mg/kg
6 | COCCOc1ccc(-c2c(C3CC3)nc3c(-c4ccncc4)cc(C)nn23)cn1 [compound 72, 2-cyclopropyl-3-[6-(2-methoxyethoxy)-3-pyridinyl]-6-methyl-8-(4-pyridinyl)-imidazo[1,2-b]pyridazine] | 123 nM | 123 nM | 1050 nM | – | – | ED50 [3, 10]: ≥ 2.5 mg/kg
7 | c1cc(N2CCOCC2)c2ncc(-c3ccc(C4CC4)nc3)n2n1 [compound 112, 3-(6-cyclopropyl-3-pyridinyl)-8-(4-morpholinyl)-imidazo[1,2-b]pyridazine] | 427 nM | 427 nM | 8130 nM | – | – | –
8 | COCCn1cc(-c2c(C)nc3c(-c4ccncc4)ccnn23)cn1 [compound 114, 3-[1-(2-methoxyethyl)-1H-pyrazol-4-yl]-2-methyl-8-(4-pyridinyl)-imidazo[1,2-b]pyridazine] | 52.5 nM | – | – | 72% | > 2.5 mg/kg | –
9 | COCCn1cc(-c2c(C(C)C)nc3c(-c4ccncc4)ccnn23)cn1 [compound 121, 3-[1-(2-methoxyethyl)-1H-pyrazol-4-yl]-2-(1-methylethyl)-8-(4-pyridinyl)-imidazo[1,2-b]pyridazine] | 234 nM | – | – | 0% | > 10 mg/kg | –
10 | COCCn1cc(-c2c(C)nc3c(-c4ccncc4)cc(C(F)(F)F)nn23)cn1 [compound 129, 3-[1-(2-methoxyethyl)-1H-pyrazol-4-yl]-2-methyl-8-(4-pyridinyl)-6-(trifluoromethyl)-imidazo[1,2-b]pyridazine] | 2630 nM | 2630 nM | > 10000 nM | – | – | –
11 | COCCn1cc(-c2c(C)nc3c(N4CCCC4)ccnn23)cn1 [compound 136, 3-[1-(2-methoxyethyl)-1H-pyrazol-4-yl]-2-methyl-8-(1-pyrrolidinyl)-imidazo[1,2-b]pyridazine] | 525 nM | 525 nM | > 10000 nM | – | – | –
12 | c1cc(N2CCOCC2)c2ncc(-c3ccc(N4CCOCC4)nc3)n2n1 [compound 144, 8-(4-morpholinyl)-3-[6-(4-morpholinyl)-3-pyridinyl]-imidazo[1,2-b]pyridazine] | 324 nM | 324 nM | > 10000 nM | – | – | –

Further lines, with some results ahead:

Row | IC50 [1, 5] | IC50 [1, 6] | IC50 [4] | receptor occupancy at 10 mg/kg [2, 9] | SMILES | ED50 [3, 8] | further results
13 | 20.9 nM | 20.9 nM | > 10000 nM | – | CC(C)(O)Cc1ccc(-c2c(C3CC3)nc3c(N4CCOCC4)ccnn23)cn1 [compound 54, 5-[2-cyclopropyl-8-(4-morpholinyl)imidazo[1,2-b]pyridazin-3-yl]-α,α-dimethyl-2-pyridineethanol] | – | ED50 [3, 7]: 1.2 mg/kg
14 | 257 nM | – | – | – | Cc1nc2c(N3CCOCC3)ccnn2c1-c1ccc(OCC(F)(F)F)nc1 [compound 62, 2-methyl-8-(4-morpholinyl)-3-[6-(2,2,2-trifluoroethoxy)-3-pyridinyl]-imidazo[1,2-b]pyridazine] | – | ED50 ([3]; po, n.d.: found not active at threshold dose 2.5 mg/kg or 10 mg/kg (a), * not soluble, tested orally as a suspension): > 2.5 mg/kg; receptor occupancy at 10 mg/kg ([2]; oral, read-out: SD po % occupancy at 10 mg/kg): 38%
15 | 162 nM | – | – | 17% | Cc1nc2c(N3CCOCC3)ccnn2c1-c1ccc(OCC2CC2)nc1 [compound 65, 3-[6-(cyclopropylmethoxy)-3-pyridinyl]-2-methyl-8-(4-morpholinyl)-imidazo[1,2-b]pyridazine] | > 10 mg/kg | –
16 | 178 nM | – | – | 29% | Cc1nc2c(N3CCOCC3)ccnn2c1-c1ccc(OC(C)C)nc1 [compound 66, 2-methyl-3-[6-(1-methylethoxy)-3-pyridinyl]-8-(4-morpholinyl)-imidazo[1,2-b]pyridazine] | > 10 mg/kg | –
17 | 331 nM | 331 nM | > 10000 nM | – | Cc1cc(N2CCOCC2)c2nc(C)c(-c3ccc(C4CC4)nc3)n2n1 [compound 110, 3-(6-cyclopropyl-3-pyridinyl)-2,6-dimethyl-8-(4-morpholinyl)-imidazo[1,2-b]pyridazine] | – | –
18 | 50.1 nM | – | – | 40% | Cc1nc2c(N3CCOCC3)ccnn2c1-c1cnn(CC(F)(F)C2CC2)c1 [compound 128, 3-[1-(2-cyclopropyl-2,2-difluoroethyl)-1H-pyrazol-4-yl]-2-methyl-8-(4-morpholinyl)-imidazo[1,2-b]pyridazine] | > 10 mg/kg | –

Reference: patent US20120220581A1, “IMIDAZO[1,2-b]PYRIDAZINE DERIVATIVES AND THEIR USE AS PDE10 INHIBITORS” (Janssen-Cilag, S.A., priority 2009, published 2012)
